# Reference: patent publication US7067549B2, “Pyrrolidone carboxamides” (Actelion Pharmaceuticals AG, priority 2001, dated 2006)
# Target: T1, mouse NPY-Y5 receptors (mNPY-Y5) (Mus musculus, UniProt O70342)
# T1 construct: The full-length cDNA which contains the mouse NPY-Y5 (mNPY-Y5) receptor coding was amplified from mouse brain cDNA; expressed in transfected cells
# T1 sequence (O70342 1-466): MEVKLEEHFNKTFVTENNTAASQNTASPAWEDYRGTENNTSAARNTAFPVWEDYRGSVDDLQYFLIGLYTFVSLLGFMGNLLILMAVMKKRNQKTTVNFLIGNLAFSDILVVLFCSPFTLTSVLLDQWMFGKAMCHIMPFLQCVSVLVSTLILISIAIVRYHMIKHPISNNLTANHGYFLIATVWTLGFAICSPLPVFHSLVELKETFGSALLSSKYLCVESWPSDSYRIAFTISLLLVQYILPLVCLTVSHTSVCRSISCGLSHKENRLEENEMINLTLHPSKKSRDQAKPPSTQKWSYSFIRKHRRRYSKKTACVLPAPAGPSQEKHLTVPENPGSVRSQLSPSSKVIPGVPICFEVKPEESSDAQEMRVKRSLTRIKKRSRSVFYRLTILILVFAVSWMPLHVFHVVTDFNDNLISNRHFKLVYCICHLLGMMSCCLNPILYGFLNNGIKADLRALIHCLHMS
# Assay: Radioligand competition binding (125I-PYY) on membranes of HEK293 cells expressing recombinant mouse NPY-Y5 receptor
# Conditions: displacement of 100 pM 125I-labeled PYY, 1 h at 22° C., read-out: NPY5 IC50
# Excerpt: The full-length cDNA which contains the mouse NPY-Y5 (mNPY-Y5) receptor coding was amplified from mouse brain cDNA using specific primers, which were custom-made on the basis of published sequences, and employing Pfu DNA polymerase (Stratagene). The amplification product was subcloned into a mammalian expression vector pcDNA3 using EcoRI and XhoI restriction sites. Positive clones were sequenced; one clone, which contained the published sequence, was selected for preparing stable cell clones.
# Human embryonic kidney 293 (HEK293) cells were transfected with 10 μg of mNPY5 DNA using Lipofectamine reagent (Gibco BRL) in accordance with the manufacturer's instructions. Two days after the transfection, the geneticin selection (1 mg/ml) was initiated and several stable clones were isolated. One of the clones was used for further pharmacological characterization.
# Human embryonic kidney cells (HEK293) which express recombinant mouse NPY-Y5 receptors (mNPY-Y5) were disrupted by being frozen/thawed three times in hypotonic Tris buffer (5 mM, pH 7.4, 1 mM MgCl2), after which they were homogenized and centrifuged at 72 000 G for 15 minutes. The precipitate was washed twice with Tris buffer (pH 7.4) containing 25 mM MgCl2, 250 mM sucrose, 0.1 mM phenylmethylsulfonyl fluoride and 0.1 mM 1,10-phenanthroline, then resuspended in the same buffer and stored in aliquots at −80° C. The protein was determined by the Lowry method using bovine serum albumin (BSA) as the standard.
# The competition binding analysis was carried out in 250 μl of 25 mM Hepes buffer (pH 7.4, 2.5 mM CaCl2, 1 mM MgCl2, 1% bovine serum albumin and 0.01% sodium azide) which 5 μg of protein, 100 pM ^125I-labeled peptide YY (PYY) and 10 μl of a DMSO solution containing increasing quantities of DMSO solution containing unlabeled test compound. After a one-hour incubation at 22° C., the bound ligand was separated from the unbound ligand by means of filtration through a glass fiber filter. Nonspecific binding was determined in the presence of 1 μM unlabeled PYY. Specific binding is defined as the difference between total binding and nonspecific binding. An IC50 value is defined as the concentration of the antagonist which displaces 50% of the ^125I-labeled […]. This concentration is determined by linear regression analysis following logit/log transformation of the binding values.
row,Structure (SMILES),IC50
1,CCn1c2ccccc2c2cc(NC(=O)C3CC(=O)N(C4CCCCCC4)C3)ccc21 (racemic) [rac. N-(9-Ethyl-9H-carbazol-3-yl)-1-cycloheptyl-5-oxopyrrolidine-3-carboxamide],15 nM
2,"CCOC(=O)CN(c1ccccc1)c1ccc(NC(=O)C2CC(=O)N(c3cc(C)ccc3C)C2)cc1 (racemic) [rac. Ethyl [(4-{[1-(2,5-dimethylphenyl)-5-oxopyrrolidine-3-carbonyl]amino}phenyl)phenylamino]acetate]",13 nM
3,"CCN(c1ccc(NC(=O)C2CC(=O)N(CC(O)c3ccccc3)C2)cc1)c1nc(C)cc(C)n1 (racemic) [rac. N-{4-[(4,6-Dimethylpyrimidin-2-yl)ethylamino]phenyl}-1-(2-hydroxy-2-phenylethyl)-5-oxo-pyrrolidine-3-carboxamide]",33 nM
4,"Cc1cc(C)nc(Nc2ccc(NC(=O)C3CC(=O)N(C4Cc5ccccc5C4)C3)cc2)n1 (racemic) [rac. N-[4-(4,6-Dimethylpyrimidin-2-ylamino)phenyl]-1-indan-2-yl-5-oxopyrrolidine-3-carboxamide]",30 nM
5,"Cc1ccc(C)c(N2CC(C(=O)Nc3ccc(N(CC4CC4)c4ccccc4)cc3)CC2=O)c1 (racemic) [rac. N-[4-(Cyclopropylmethylphenylamino)phenyl]-1-(2,5-dimethylphenyl)-5-oxopyrrolidine-3-carboxamide]",45 nM
6,"Cc1ccc(C)c(N2CC(C(=O)Nc3ccc(N(C)c4ccccc4)cc3)CC2=O)c1 (racemic) [rac. N-[4-(Methylphenylamino)phenyl]-1-(2,5-dimethylphenyl)-5-oxopyrrolidine-3-carboxamide]",26 nM

# Now those with a lower IC50, led by results:
row,IC50,Structure (SMILES)
1,9 nM,"CCN(CC)c1ccc(NC(=O)C2CC(=O)N(c3cc(C)ccc3C)C2)cc1 (racemic) [rac. N-(4-Diethylaminophenyl)-1-(2,5-dimethylphenyl)-5-oxopyrrolidine-3-carboxamide]"
2,10 nM,CCn1c2ccccc2c2cc(NC(=O)C3CC(=O)N(c4ccccc4C(C)C)C3)ccc21 (racemic) [rac. N-(9-Ethyl-9H-carbazol-3-yl)-1-(2-isopropylphenyl)-5-oxopyrrolidine-3-carboxamide]
3,10 nM,CCn1c2ccccc2c2cc(NC(=O)C3CC(=O)N(Cc4cccs4)C3)ccc21 (racemic) [rac. N-(9-Ethyl-9H-carbazol-3-yl)-5-oxo-1-thiophen-2-ylmethylpyrrolidine-3-carboxamide]
4,3 nM,CCn1c2ccccc2c2cc(NC(=O)C3CC(=O)N(CCc4ccccn4)C3)ccc21 (racemic) [rac. N-(9-Ethyl-9H-carbazol-3-yl)-5-oxo-1-(2-pyridin-2-ylethyl)pyrrolidine-3-carboxamide]
